From patent publication US10568317B2 (Biomatrica, Inc., priority 2015, dated 2020)

Columns and labels:
Type in all cases: cell-based
[1] = system: erythrocytes in whole blood; assay: Erythrocyte sedimentation in whole blood: sucralose concentration and other saccharides, visual analysis (Example 2); details: K2EDTA blood, 1 hour and 6 hours
Protocol: Fresh blood was collected into BD K2EDTA VACUTAINER® tubes and pooled. 952 μL of fresh blood was aliquot into 2 mL centrifuge tubes, each containing 48 μL of sucralose at the indicated concentration in FIG. 2, or the indicated saccharide (ML848, a di-chlorinated monosaccharide, or DG783, a mono-fluorinated monosaccharide) at the indicated concentration. Sucralose solutions of different concentrations were prepared by dilution of 0.5 M sucralose to 10 mM in water. […] 48 μL of PBS and 0.9% saline served as controls. Final concentrations of sucralose or the indicated saccharide shown in FIG. 2 were as follows (from left to right): 24 mM sucralose, 12 mM sucralose, 6.24 mM sucralose, 2.88 mM sucralose, 1.44 mM sucralose, 0.96 mM sucralose, 0.48 mM sucralose, 24 mM sucrose, 2.4 mM sucrose, 24 mM trehalose, 24 mM melezitose, 4.8 mM ML848, and 24 mM DG783.
(§1) The filled centrifuge tubes were gently inverted five times to mix and stored upright on the benchtop at approximately 25° C. Tubes were photographed at 1 hour (FIG. 2, upper panel) and 6 hours (FIG. 2, center panel) against a white background for visual analysis of sedimentation rate. After 7 hours of storage, tubes were centrifuged for 20 min at 3000 rpm to determine the effect of hemolysis on sedimentation rate by visual analysis (FIG. 2, lower panel).

[2] = system: erythrocytes in whole blood; assay: Erythrocyte sedimentation in whole blood: sucralose compared to polyols and halogenated polyols, visual analysis (Example 5); details: 0.5 M solution, final 24 mM sucralose, K2EDTA blood, 2 hours
Protocol: Fresh blood was collected into BD K2EDTA VACUTAINER® tubes and pooled. 952 μL of fresh blood was aliquot into 2 mL centrifuge tubes containing 48 μL of a solution of 0.5 M sucralose, the indicated polyol, or the indicated halogenated polyol. Additives at 0.25 M were adjusted to 300 mOsmol with NaCl. PBS and no formulation (NF) added served as controls. The filled centrifuge tubes were gently inverted five times to mix and stored upright on the benchtop at approximately 25° C. Tubes were photographed at 2 hours against a white background for visual analysis of sedimentation rate.

[3] = system: erythrocytes in whole blood; assay: Erythrocyte sedimentation in whole blood after addition of sucralose solution, visual analysis (Example 1); details: about 24 mM sucralose (0.5 M solution, blood:solution 20:1), K2EDTA blood, ambient temperature, 6 hours and 24 hours
Protocol: Fresh blood was collected into BD K2EDTA VACUTAINER® tubes and pooled. Blood and a solution of 0.5 M sucralose were mixed at a ratio of 20:1 by aliquotting 952 μL of fresh blood into 2 mL centrifuge tubes containing 48 μL of formulation, resulting in a concentration of about 24 mM sucralose. 48 μL of PBS and 0.9% saline served as controls. Blood with no formulation (NF) added served as an additional control. The filled centrifuge tubes were gently inverted five times to mix and stored upright on the benchtop at approximately 25° C. Tubes were photographed at 0 hours (FIG. 1A), 6 hours (FIG. 1B), and 24 hours (FIG. 1C) against a white background for visual analysis of sedimentation rate.

[4] = system: erythrocytes in whole blood; assay: Erythrocyte sedimentation in whole blood collected with different anticoagulants, visual analysis (Example 4); details: final 24 mM sucralose; ACD-B, K3EDTA, NaHep, LiHep, NaF, SPS, K2EDTA tubes; 2 hours and 8 hours
Source text: To screen for collection conditions, fresh blood was collected into a series of BD VACUTAINER® or Greiner Bio-One VACUETTE® low-volume blood collection tubes containing different anticoagulants, including acid citrate dextrose solution B (ACD-B), tri-potassium ethylenediaminetetraacetic acid (K3EDTA), sodium heparin (NaHep), lithium heparin (LiHep), sodium fluoride (NaF), and sodium polyanethol sulfonate (SPS). Collection into tubes containing di-potassium ethylenediaminetetraacetic acid (K2EDTA) served as a control. 952 μL of fresh blood was aliquot into 2 mL centrifuge tubes containing 48 μL of 0.5 M sucralose or PBS. No formulation (NF) added served as an additional control. The filled centrifuge tubes were gently inverted five times to mix and stored upright on the benchtop at approximately 25° C. Tubes were photographed at 2 hours (FIG. 4, upper panel) and 8 hours (FIG. 4, lower panel) against a white background for visual analysis of sedimentation rate. […] By contrast, addition of PBS had no effect on erythrocyte sedimentation rate.

[5] = system: erythrocytes in whole blood; assay: Erythrocyte sedimentation in whole blood after addition of sucralose powder, visual analysis (Example 3)
Protocol: Fresh blood was collected into BD K2EDTA VACUTAINER® tubes and pooled. 1 mL of fresh blood was aliquotted into 2 mL centrifuge tubes containing sucralose powder. Final concentrations of sucralose ranged from 7.5 mM to 100 mM, corresponding to 3.0 mg to 39.8 mg per mL of blood. The no formulation (NF) control sample received no addition of sucralose. Tubes were inverted at least five times until no visible undissolved material remained at the bottom of the tubes. Tubes were stored upright on the benchtop at approximately 25° C. Tubes were photographed at 1 hour (FIG. 3, upper panel) and 6 hours (FIG. 3, lower panel) against a white background for visual analysis of sedimentation rate.

[6] = system: erythrocytes in whole blood; assay: Hemolysis by centrifugation after 7 hours of storage, visual analysis (Example 2)
Protocol: as §1

[7] = other saccharides, final: 24 mM and 2.4 mM sucrose, 24 mM trehalose, 24 mM melezitose, 4.8 mM ML848, 24 mM DG783

OC[C@H]1O[C@@](CO)(O[C@H]2O[C@H](CO)[C@@H](O)[C@H](O)[C@H]2O)[C@@H](O[C@H]2O[C@H](CO)[C@@H](O)[C@H](O)[C@H]2O)[C@@H]1O [melezitose]
lower sedimentation rate of erythrocytes [1, 7]: not observed

OC[C@H]1O[C@H](O[C@]2(CCl)O[C@H](CCl)[C@@H](O)[C@@H]2O)[C@H](O)[C@@H](O)[C@H]1Cl [sucralose, 1,6-dichloro-1,6-dideoxy-β-D-fructofuranosyl-4-chloro-4-deoxy-α-D-galactopyranoside]
erythrocyte sedimentation rate [2]: reduced erythrocyte sedimentation rate | sedimentation rate of the erythrocytes compared to NF, PBS or saline [3]: lower sedimentation rate | lower sedimentation rate of erythrocytes ([1]; final sucralose concentrations below 5 mM): not observed | sedimentation rate of erythrocytes ([1]; high concentrations of sucralose, ambient temperature): lower sedimentation rate | erythrocyte sedimentation rate for each anticoagulant [4]: reduction of erythrocyte sedimentation rate | state of whole blood samples at lower concentrations of sucralose ([5]; sucralose powder below 24 mM, ambient temperatures, 6 hours): separation of the erythrocyte and plasma layers | sucralose concentration at which homogeneity of whole blood samples was observed ([5]; sucralose powder, ambient temperatures, 6 hours): ≥ 24 mM | rate of erythrocyte sedimentation versus sucralose concentration ([5]; sucralose powder, final 7.5 mM to 100 mM, K2EDTA blood, 1 hour and 6 hours): inversely proportional to the concentration of sucralose | hemolysis of erythrocytes (coloration of plasma layer after centrifugation) ([6]; high concentration of sucralose, 7 hours of storage, centrifuged 20 min at 3000 rpm): not due to excessive hemolysis | final sucralose concentrations at which significant hemolysis was not seen ([6]; whole blood): ≤ 40 mM

OC[C@H]1O[C@@](CO)(O[C@H]2O[C@H](CO)[C@@H](O)[C@H](O)[C@H]2O)[C@@H](O)[C@@H]1O [sucrose]
lower sedimentation rate of erythrocytes [1, 7]: not observed

OC[C@H]1O[C@H](O[C@H]2O[C@H](CO)[C@@H](O)[C@H](O)[C@H]2O)[C@H](O)[C@@H](O)[C@@H]1O [trehalose]
lower sedimentation rate of erythrocytes [1, 7]: not observed
